Assays:
[1] = Solubility of balsalazide disodium in solvents; format: physicochemical
[2] = Stability of standard and sample solutions in dissolution medium; format: physicochemical; settings: room temperature, unprotected from light
Procedure: Prepare the stock standard solution in duplicate. For each preparation, transfer approximately 35 mg of Balsalazide Disodium Reference Standard, accurately weighed, to a 200-mL volumetric flask. Add 150 mL of dissolution medium, swirl and briefly sonicate to dissolve the flask contents. Dilute to volume with dissolution medium and mix well. Stock Standard Preparation A should be used for analysis of dissolution samples. Prep B should be used as the standard check preparation. The stock standard preparation is stable for 4 days when stored at room temperature and unprotected from light.
For each of the stock standard preparations, pipet 5.0 mL of the stock solution into a 50-mL volumetric flask, dilute to volume with dissolution medium, and mix well. The working standard preparation is stable for 4 days when stored at room temperature and unprotected from light.
Perform USP Apparatus 2 dissolution testing on six individual capsules utilizing the dissolution conditions listed below. Immediately, filter the samples using a 0.2 μm Gelman Nylon filter or a 10-μm Vankel Full Flow filter, discarding the first 2 mL of sample. Pipet 2.0 mL of the sample filtrate into a 100-mL volumetric flask, dilute to volume with dissolution medium, and mix well (nominal concentration: 0.017 mg Balsalazide Disodium per mL). […]

With O.O.O=C([O-])CCNC(=O)c1ccc(/N=N/c2ccc(O)c(C(=O)[O-])c2)cc1.[Na+].[Na+] [Balsalazide disodium, (E)-5-[[-4-[[(2-carboxyethyl)amino]carbonyl]phenyl]azo]-2-hydroxybenzoic acid, disodium salt, dihydrate] the Solubility ([1]; in all other organic solvents) was “practically insoluble”, the Solubility ([1]; in ethanol) was “sparingly soluble” and the Solubility ([1]; in isotonic saline) was “freely soluble”. For the same compound, the Solubility ([1]; in methanol) was “sparingly soluble”, the Solubility ([1]; in water) was “freely soluble” and the “Time the preparation is stable” value ([2]; stock standard preparation 0.175 mg/mL in dissolution medium) was 4 days. The “Time the preparation is stable” value ([2]; working standard preparation 0.0175 mg/mL in dissolution medium) was 4 days.
